Source: ChEMBL document CHEMBL5042556, “Lead Optimization to Advance Protease-Activated Receptor-1 Antagonists in Early Discovery” (J Med Chem, 2022)

Experiments:
[1] = molecular target: T1, Proteinase-activated receptor 1 (Homo sapiens, UniProt P25116); assay: Antagonist activity at human PAR-1 expressed in HEK293 cells assessed as reduction in TRAP induced calcium signal at 3 uM by FLIPR analysis; format: functional, cell-based
T1 sequence (P25116 whole entry): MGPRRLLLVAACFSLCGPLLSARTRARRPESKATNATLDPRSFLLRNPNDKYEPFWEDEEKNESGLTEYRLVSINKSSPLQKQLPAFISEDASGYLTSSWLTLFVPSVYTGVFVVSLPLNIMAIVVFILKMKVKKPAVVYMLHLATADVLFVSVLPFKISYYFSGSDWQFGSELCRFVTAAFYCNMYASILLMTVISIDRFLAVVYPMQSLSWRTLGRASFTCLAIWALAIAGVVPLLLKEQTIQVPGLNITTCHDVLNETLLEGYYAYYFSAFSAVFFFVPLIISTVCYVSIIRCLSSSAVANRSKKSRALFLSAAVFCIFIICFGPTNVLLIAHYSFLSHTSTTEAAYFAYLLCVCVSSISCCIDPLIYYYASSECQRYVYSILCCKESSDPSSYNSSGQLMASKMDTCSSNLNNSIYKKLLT

[2] = molecular target: T2, Voltage-gated inwardly rectifying potassium channel KCNH2 (Homo sapiens, UniProt Q12809); assay: Inhibition of [35S]MK-499 binding to hERG expressed in HEK293 cells; format: toxicity, cell-based
[3] = MRT in rat at 1 mg/kg, iv; format: ADME, organism-based; settings: in vivo
[4] = MRT in cynomolgus monkey at 0.3 mg/kg, po; format: ADME, organism-based, Macaca fascicularis; settings: in vivo
[5] = MRT in intravenously dosed cynomolgus monkey; format: ADME, organism-based, Macaca fascicularis; settings: in vivo, iv
[6] = Unbound volume of distribution in intravenously dosed cynomolgus monkey; format: ADME, organism-based, Macaca fascicularis; settings: in vivo, iv
[7] = Unbound clearance in intravenously dosed dog; format: ADME, organism-based, Canis lupus familiaris; settings: in vivo, iv
[8] = MRT in rat at 3 mg/kg, iv; format: ADME, organism-based; settings: in vivo
[9] = Plasma protein binding in dog assessed as unbound fraction; format: ADME, cell-free, Canis lupus familiaris
[10] = Clearance in intravenously dosed cynomolgus monkey; format: ADME, organism-based, Macaca fascicularis; settings: in vivo, iv
[11] = Unbound clearance in intravenously dosed cynomolgus monkey; format: ADME, organism-based, Macaca fascicularis; settings: in vivo, iv
[12] = molecular target: T2, Voltage-gated inwardly rectifying potassium channel KCNH2; assay: Inhibition of [35S]MK-499 binding to hERG expressed in HEK293 cells at 60 uM; format: toxicity, cell-based
P-glycoprotein (ABCB1) = P-glycoprotein (ABCB1) (Homo sapiens, UniProt P08183); assay: Effect on human P-glycoprotein expressed in MDCK cells assessed as efflux ratio of apparent permeability across basolateral to apical side over apical to basolateral side (reference value: 0.6 to 0.8); format: ADME, cell-based, MDCKII-LE; settings: MDCK-MDR1
[13] = Clearance in mouse hepatocyte measured per 10^6 cells; format: ADME, cell-based; settings: hepatocytes
[14] = Plasma protein binding in cynomolgus monkey assessed as unbound fraction; format: ADME, cell-free, Macaca fascicularis
[15] = Clearance in dog hepatocyte measured per 10^6 cells; format: ADME, cell-based, Canis lupus familiaris; settings: hepatocytes
[16] = MRT in intravenously dosed dog; format: ADME, organism-based, Canis lupus familiaris; settings: in vivo, iv
P-glycoprotein = assay: Effect on rat P-glycoprotein expressed in MDCK cells assessed as efflux ratio of apparent permeability across basolateral to apical side over apical to basolateral side (reference value: 0.6 to 0.8); format: ADME, cell-based, MDCKII-LE; settings: MDCK-MDR1
[17] = Clearance in rat hepatocyte measured per 10^6 cells; format: ADME, cell-based; settings: hepatocytes
[18] = Oral bioavailability in cynomolgus monkey; format: ADME, organism-based, Macaca fascicularis; settings: in vivo
[19] = Clearance in rat at 3 mg/kg, iv; format: ADME, organism-based; settings: in vivo
[20] = MRT in cynomolgus monkey at 0.3 mg/kg, iv; format: ADME, organism-based, Macaca fascicularis; settings: in vivo
[21] = Clearance in human hepatocyte measured per 10^6 cells; format: ADME, cell-based; settings: hepatocytes
[22] = Apparent permeability in MDCKII-LE cells; format: ADME, cell-based, Canis lupus familiaris; settings: dog, MDCK
[23] = Unbound clearance in rat at 3 mg/kg, iv; format: ADME, organism-based; settings: in vivo
[24] = Ex vivo inhibition of PAR-1 in cynomolgus monkey whole blood assessed as inhibition of TRAP-induced platelet aggregation at 0.3 mg/kg, po measured after 24 hrs; format: functional; settings: Macaca fascicularis
[25] = Unbound volume of distribution in intravenously dosed dog; format: ADME, organism-based, Canis lupus familiaris; settings: in vivo, iv
[26] = Ex vivo inhibition of PAR-1 in cynomolgus monkey whole blood assessed as inhibition of TRAP-induced platelet aggregation at 1 mg/kg, po measured after 24 hrs; format: functional; settings: Macaca fascicularis
[27] = Volume of distribution in rat at 0.3 mg/kg, iv; format: ADME, organism-based; settings: in vivo
[28] = Unbound volume of distribution in rat at 3 mg/kg, iv; format: ADME, organism-based; settings: in vivo
[29] = Volume of distribution in intravenously dosed cynomolgus monkey; format: ADME, organism-based, Macaca fascicularis; settings: in vivo, iv
[30] = Plasma protein binding in rat assessed as unbound fraction; format: ADME, cell-free
[31] = Oral bioavailability in rat; format: ADME, organism-based; settings: in vivo
[32] = Clearance in intravenously dosed dog; format: ADME, organism-based, Canis lupus familiaris; settings: in vivo, iv
[33] = Oral bioavailability in dog; format: ADME, organism-based, Canis lupus familiaris; settings: in vivo
[34] = MRT in rat at 0.5 mg/kg, iv; format: ADME, organism-based; settings: in vivo

T2 sequence (Q12809 whole entry): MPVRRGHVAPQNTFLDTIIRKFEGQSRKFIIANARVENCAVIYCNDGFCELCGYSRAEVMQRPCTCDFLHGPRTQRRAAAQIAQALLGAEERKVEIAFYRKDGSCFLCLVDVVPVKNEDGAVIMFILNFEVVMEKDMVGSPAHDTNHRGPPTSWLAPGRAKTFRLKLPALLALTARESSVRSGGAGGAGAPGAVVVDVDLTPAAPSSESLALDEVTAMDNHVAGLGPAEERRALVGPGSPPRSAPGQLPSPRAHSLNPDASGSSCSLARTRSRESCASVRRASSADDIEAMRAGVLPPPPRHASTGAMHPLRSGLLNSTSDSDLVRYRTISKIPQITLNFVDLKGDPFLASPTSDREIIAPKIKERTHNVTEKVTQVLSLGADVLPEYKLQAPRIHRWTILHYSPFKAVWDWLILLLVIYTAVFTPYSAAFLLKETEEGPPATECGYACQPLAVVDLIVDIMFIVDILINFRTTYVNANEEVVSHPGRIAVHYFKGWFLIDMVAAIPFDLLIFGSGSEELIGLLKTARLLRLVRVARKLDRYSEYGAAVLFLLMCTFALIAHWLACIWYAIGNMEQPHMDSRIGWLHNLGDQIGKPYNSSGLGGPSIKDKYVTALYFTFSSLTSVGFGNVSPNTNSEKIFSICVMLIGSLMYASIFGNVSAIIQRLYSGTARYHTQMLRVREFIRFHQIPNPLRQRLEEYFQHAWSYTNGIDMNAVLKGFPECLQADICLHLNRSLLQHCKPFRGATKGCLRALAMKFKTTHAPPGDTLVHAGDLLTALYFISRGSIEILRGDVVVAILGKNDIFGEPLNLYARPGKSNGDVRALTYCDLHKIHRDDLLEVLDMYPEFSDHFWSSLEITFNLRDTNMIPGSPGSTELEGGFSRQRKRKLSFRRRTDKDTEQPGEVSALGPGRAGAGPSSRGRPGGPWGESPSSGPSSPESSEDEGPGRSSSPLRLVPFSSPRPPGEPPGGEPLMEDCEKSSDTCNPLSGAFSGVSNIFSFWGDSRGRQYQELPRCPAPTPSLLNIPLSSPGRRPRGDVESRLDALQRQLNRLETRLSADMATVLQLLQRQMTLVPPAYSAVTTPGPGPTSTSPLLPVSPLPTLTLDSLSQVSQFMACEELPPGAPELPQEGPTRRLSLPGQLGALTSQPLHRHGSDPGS
P-glycoprotein (ABCB1), sequence (P08183 whole entry): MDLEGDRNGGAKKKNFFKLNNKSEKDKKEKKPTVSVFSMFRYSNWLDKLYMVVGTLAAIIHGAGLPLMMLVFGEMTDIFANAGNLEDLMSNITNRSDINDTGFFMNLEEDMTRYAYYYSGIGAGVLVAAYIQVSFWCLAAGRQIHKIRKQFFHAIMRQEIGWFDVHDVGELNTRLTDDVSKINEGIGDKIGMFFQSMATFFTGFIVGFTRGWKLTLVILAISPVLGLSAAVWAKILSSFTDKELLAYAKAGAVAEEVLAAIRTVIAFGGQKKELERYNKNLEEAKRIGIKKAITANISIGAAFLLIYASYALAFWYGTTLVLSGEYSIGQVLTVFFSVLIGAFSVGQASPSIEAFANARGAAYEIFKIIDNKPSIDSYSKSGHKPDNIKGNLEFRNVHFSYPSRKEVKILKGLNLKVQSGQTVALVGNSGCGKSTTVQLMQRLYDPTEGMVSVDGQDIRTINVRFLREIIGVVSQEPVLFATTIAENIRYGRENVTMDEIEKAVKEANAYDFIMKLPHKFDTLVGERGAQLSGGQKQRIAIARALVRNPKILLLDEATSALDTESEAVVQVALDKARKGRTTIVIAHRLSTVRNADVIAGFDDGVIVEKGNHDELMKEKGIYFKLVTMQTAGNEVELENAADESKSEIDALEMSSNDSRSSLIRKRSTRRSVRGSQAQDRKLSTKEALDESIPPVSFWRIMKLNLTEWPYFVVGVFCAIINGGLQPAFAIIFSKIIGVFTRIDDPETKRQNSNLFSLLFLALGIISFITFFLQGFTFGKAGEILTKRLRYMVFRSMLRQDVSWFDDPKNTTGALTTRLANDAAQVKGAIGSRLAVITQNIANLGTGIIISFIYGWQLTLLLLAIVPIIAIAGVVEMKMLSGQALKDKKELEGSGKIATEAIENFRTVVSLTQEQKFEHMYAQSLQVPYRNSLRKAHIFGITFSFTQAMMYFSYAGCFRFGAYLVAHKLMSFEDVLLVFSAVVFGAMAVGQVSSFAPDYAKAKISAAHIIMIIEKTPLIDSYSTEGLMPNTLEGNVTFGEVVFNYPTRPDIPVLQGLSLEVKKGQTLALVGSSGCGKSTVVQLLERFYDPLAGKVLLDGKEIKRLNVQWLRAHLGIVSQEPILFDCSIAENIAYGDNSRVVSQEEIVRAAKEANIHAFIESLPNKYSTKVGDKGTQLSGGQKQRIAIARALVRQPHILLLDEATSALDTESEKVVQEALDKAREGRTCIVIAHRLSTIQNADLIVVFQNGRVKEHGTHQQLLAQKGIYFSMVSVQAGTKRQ

## CC[C@H]1[C@H](/C=C/c2ccc(-c3ccccc3C#N)cn2)[C@@H]2[C@@H](C)OC(=O)[C@]2(O)CC1(F)F
[1]
  IC50: 8 nM
[2]
  IC50: 17 µM
[3]
  MRT: 5.5 h
[4]
  MRT: > 20 h

## C[C@H]1OC(=O)[C@@H]2CC3(NC(=O)NC3=O)[C@@H](C)[C@H](c3ccc(-c4cccc(F)c4)cn3)[C@H]12 (stereo partly specified)
[1]
  IC50: 178 nM

## CCOC(=O)N1C[C@H]2[C@H](C)[C@@H](C)[C@H](/C=C/c3ccc(-c4ccccc4C#N)cn3)[C@@H]3[C@@H](C)OC(=O)[C@@]32C1
[1]
  IC50: 4 nM
[2]
  IC50: 1.6 µM

## C[C@@H]1[C@@H](C)[C@@H]2CNC[C@@]23C(=O)O[C@H](C)[C@H]3[C@H]1/C=C/c1ccc(-c2ccccc2C#N)cn1
[1]
  IC50: 14 nM
[2]
  IC50: 1.3 µM

## Cc1cccc(-c2ccc(/C=C/[C@@H]3[C@@H]4[C@@H](C)OC(=O)[C@]4(O)CC(F)(F)[C@H]3C)nc2)c1C#N
[5]
  MRT: 3 h
[6]
  Vdu: 60 L/kg
[7]
  CL free: 1238 mL/min/kg
[1]
  IC50: 3 nM
[8]
  MRT: 84 min
[9]
  fraction unbound: 0.02
[2]
  IC50: 9 µM
[10]
  clearance: 8.6 mL/min/kg
[11]
  CL free: 344 mL/min/kg
[12]
  IC50: 9 µM
P-glycoprotein (ABCB1)
  efflux ratio: 1.5
[13]
  CLint: 11.4 µL/min/1e6 cells
[14]
  fraction unbound: 0.02
[15]
  CLint: 41.7 µL/min/1e6 cells
[16]
  MRT: 2.3 h
P-glycoprotein
  efflux ratio: 3.3
[17]
  CLint: 2.3 µL/min/1e6 cells
[18]
  bioavailability: 57%
[19]
  clearance: 37 mL/min/kg
[20]
  MRT: 3.2 h
[3]
  MRT: 2.2 h
[21]
  CLint: 4.3 µL/min/1e6 cells
[22]
  Papp: 41.9 ×10⁻⁶ cm/s
[23]
  CL free: 1370 mL/min/kg
[24]
  inhibition in vivo at 0.3 mg/kg: 100%
[25]
  Vdu: 171 L/kg
[26]
  inhibition in vivo at 1 mg/kg: 100%
[27]
  Vd: 3.1 L/kg
[28]
  Vdu: 115 L/kg
[29]
  Vd: 1.5 L/kg
[30]
  fraction unbound: 0.03
[31]
  bioavailability: 44%
[32]
  clearance: 26 mL/min/kg
[33]
  bioavailability: 5%

## C[C@H]1OC(=O)[C@@H]2CC(F)(F)[C@@H](C)[C@H](c3ccc(-c4cccc(F)c4)cn3)[C@H]12
[1]
  IC50: 5 nM

## C[C@H]1[C@H](c2ccc(-c3cccc(F)c3)cn2)[C@@H]2[C@@H](C)OC(=O)[C@@H]2C[C@@H]1C
[1]
  IC50: 3 nM

## C[C@@H]1[C@@H](C)[C@@H]2CN(C)C[C@@]23C(=O)O[C@H](C)[C@H]3[C@H]1/C=C/c1ccc(-c2ccccc2C#N)cn1
[1]
  IC50: 28 nM
[2]
  IC50: 14.8 µM

## CCNC(=O)N1C[C@H]2[C@H](C)[C@@H](C)[C@H](/C=C/c3ccc(-c4ccccc4C#N)cn3)[C@@H]3[C@@H](C)OC(=O)[C@@]32C1
[5]
  MRT: 1.8 h
[6]
  Vdu: 15 L/kg
[7]
  CL free: 112 mL/min/kg
[1]
  IC50: 7 nM
[8]
  MRT: 26.4 min
[9]
  fraction unbound: 0.05
[2]
  IC50: 9.2 µM
[10]
  clearance: 7.7 mL/min/kg
[11]
  CL free: 140 mL/min/kg
[12]
  IC50: 9 µM
P-glycoprotein (ABCB1)
  efflux ratio: > 65
[13]
  CLint: 19.7 µL/min/1e6 cells
[14]
  fraction unbound: 0.06
[15]
  CLint: 11.8 µL/min/1e6 cells
[16]
  MRT: 6.2 h
P-glycoprotein
  efflux ratio: > 71
[17]
  CLint: 17.2 µL/min/1e6 cells
[18]
  bioavailability: 13%
[19]
  clearance: 46 mL/min/kg
[21]
  CLint: 7.3 µL/min/1e6 cells
[22]
  Papp: 32.3 ×10⁻⁶ cm/s
[23]
  CL free: 742 mL/min/kg
[24]
  inhibition in vivo at 0.3 mg/kg: 100%
[25]
  Vdu: 42 L/kg
[26]
  inhibition in vivo at 1 mg/kg: 100%
[27]
  Vd: 1.2 L/kg
[28]
  Vdu: 19 L/kg
[29]
  Vd: 0.81 L/kg
[30]
  fraction unbound: 0.06
[31]
  bioavailability: 10%
[32]
  clearance: 5.6 mL/min/kg
[33]
  bioavailability: 19%

## C[C@H]1NC(=O)[C@]2(N)CC(F)(F)[C@@H](C)[C@H](/C=C/c3ccc(-c4ccccc4C#N)cn3)[C@H]12
[1]
  IC50: 6 nM
[2]
  IC50: 33 µM
[20]
  MRT: 38.4 h
[34]
  MRT: 2.7 h

## CC1=NO[C@@]2(C1)C[C@H]1C(=O)O[C@H](C)[C@H]1[C@@H](c1ccc(-c3cccc(F)c3)cn1)[C@@H]2C
[1]
  IC50: 134 nM

## C[C@H]1OC(=O)[C@]2(O)CC(F)(F)[C@@H](C)[C@H](/C=C/c3ccc(-c4cccc(F)c4)cn3)[C@H]12
[1]
  IC50: 8 nM
[2]
  IC50: 29 µM
[4]
  MRT: 68 h

## CNC(=O)N1C[C@H]2[C@H](C)[C@@H](C)[C@H](/C=C/c3ccc(-c4ccccc4C#N)cn3)[C@@H]3[C@@H](C)OC(=O)[C@@]32C1
[1]
  IC50: 7 nM
[2]
  IC50: 50 µM

## C[C@H]1OC(=O)[C@]2(O)CC(F)(F)[C@@H](C)[C@H](/C=C/c3ccc(-c4ccccc4C#N)cn3)[C@H]12
[3]
  MRT: 20 h
[4]
  MRT: > 20 h
